{"source": "patent US8193315B2", "about": "(Sanford-Burnham Medical Research Institute, priority 2001, dated 2012)", "type_in_all_cases": "cell-based", "key": {"[1]": {"biological_target": "T1, NR1/NR3B receptors (Rattus norvegicus, UniProt P35439+Q8VHN2)", "T1 construct": "Full-length cDNAs encoding NMDA receptor subunits were linearized and used as templates for synthesis of cRNA; expressed in transfected cells; host or cells: Xenopus laevis oocytes injected with cRNA", "T1 sequence (Q8VHN2 25-1002, other chains not shown)": "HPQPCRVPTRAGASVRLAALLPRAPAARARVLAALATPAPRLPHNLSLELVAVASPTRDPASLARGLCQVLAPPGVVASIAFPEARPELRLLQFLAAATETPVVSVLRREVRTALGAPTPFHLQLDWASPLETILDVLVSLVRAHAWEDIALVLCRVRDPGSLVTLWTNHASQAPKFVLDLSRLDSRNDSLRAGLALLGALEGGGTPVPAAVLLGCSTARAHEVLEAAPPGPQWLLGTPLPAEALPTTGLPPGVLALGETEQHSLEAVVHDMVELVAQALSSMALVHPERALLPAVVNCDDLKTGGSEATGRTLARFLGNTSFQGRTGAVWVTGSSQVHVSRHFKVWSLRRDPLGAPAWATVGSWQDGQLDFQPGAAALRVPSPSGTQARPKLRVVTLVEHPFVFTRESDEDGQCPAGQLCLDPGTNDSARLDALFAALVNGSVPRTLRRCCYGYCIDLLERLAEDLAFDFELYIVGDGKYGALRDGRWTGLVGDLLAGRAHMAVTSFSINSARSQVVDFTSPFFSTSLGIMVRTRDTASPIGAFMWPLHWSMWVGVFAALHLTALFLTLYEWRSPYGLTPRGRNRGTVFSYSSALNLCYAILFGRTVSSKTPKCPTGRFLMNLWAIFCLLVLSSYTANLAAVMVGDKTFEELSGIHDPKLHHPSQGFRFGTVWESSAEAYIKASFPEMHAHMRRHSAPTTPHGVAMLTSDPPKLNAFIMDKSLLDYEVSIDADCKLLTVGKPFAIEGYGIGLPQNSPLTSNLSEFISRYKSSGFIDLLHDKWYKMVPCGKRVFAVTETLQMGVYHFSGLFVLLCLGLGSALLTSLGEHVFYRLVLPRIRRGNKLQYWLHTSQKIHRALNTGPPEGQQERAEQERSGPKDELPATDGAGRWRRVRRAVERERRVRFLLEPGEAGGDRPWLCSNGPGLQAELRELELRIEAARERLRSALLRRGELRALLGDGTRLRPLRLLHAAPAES", "test": "Glycine-evoked whole-oocyte currents of NR1/NR3B receptors, dual-electrode voltage clamp in Xenopus oocytes", "source_text": "NR3B cRNA for oocyte expression was produced as follows. The full-length NR3B cDNA was constructed in the pCMV6-XL4 vector (OriGene Technologies, Inc., Rockville, Md.), which contains a T7 promoter upstream of the cDNA insert. […] The truncated cRNA could potentially encode a dominant negative form of NR3B. Therefore, a new vector was constructed to facilitate production of exclusively full-length NR3B cRNA. Construction of this vector proceeded as follows. NR1 cDNA was excised from the pGEM-HE/NR1 vector (a gift from S. F. Heinemann) by digestion with EcoRI and the two ends of the truncated pGEM-HE vector were re-ligated. The truncated pGEM-HE vector retained the 5′ and 3′ UTRs of the X. laevis β-globin gene for high level protein expression in frog oocytes. The SfoI-KpnI fragment of truncated pGEM-HE, which contains the T7 promoter, was replaced with the PvuII-KpnI fragment of pBluescript II KS, which contains the T3 promoter, to generate pJC32. The abbreviated multiple cloning site of pJC32 was then replaced with the multiple cloning site from pcDNA3.1(+) (Invitrogen, Carlsbad, Calif.) by ligating the 102 bp PmeI fragment of pcDNA3.1(+) into the 3 kb SmaI-EcoRV fragment of pJC32 to generate pJC34. […] The resulting vector, pJC39, contains three rare restriction sites downstream of the multiple cloning site to facilitate linearization prior to in vitro transcription using T3 RNA polymerase.\nThe full-length NR3B (B4 form) cDNA was then excised from pCMV6-XL4 by digestion with EcoRI and XbaI, and the 3.2 kb fragment was ligated into EcoRI/XbaI-digested pJC39. The resulting vector, pJC42, was linearized with PmeI, and in vitro transcription was performed using the mMessage mMachine T3 kit (Ambion, Inc., Austin, Tex.) according to the manufacturer's instructions.\nMicropipettes were filled with 3 M KCl."}, "[2]": {"biological_target": "T2, NR1/NR3A receptors (Rattus norvegicus, UniProt P35439+Q9R1M7)", "T2 construct": "Full-length cDNAs encoding NMDA receptor subunits were linearized and used as templates for synthesis of cRNA; expressed in transfected cells; host or cells: Xenopus laevis oocytes injected with cRNA", "T2 sequence (Q9R1M7 24-1115 isoform Q9R1M7-2 limits assumed, other chains not shown)": "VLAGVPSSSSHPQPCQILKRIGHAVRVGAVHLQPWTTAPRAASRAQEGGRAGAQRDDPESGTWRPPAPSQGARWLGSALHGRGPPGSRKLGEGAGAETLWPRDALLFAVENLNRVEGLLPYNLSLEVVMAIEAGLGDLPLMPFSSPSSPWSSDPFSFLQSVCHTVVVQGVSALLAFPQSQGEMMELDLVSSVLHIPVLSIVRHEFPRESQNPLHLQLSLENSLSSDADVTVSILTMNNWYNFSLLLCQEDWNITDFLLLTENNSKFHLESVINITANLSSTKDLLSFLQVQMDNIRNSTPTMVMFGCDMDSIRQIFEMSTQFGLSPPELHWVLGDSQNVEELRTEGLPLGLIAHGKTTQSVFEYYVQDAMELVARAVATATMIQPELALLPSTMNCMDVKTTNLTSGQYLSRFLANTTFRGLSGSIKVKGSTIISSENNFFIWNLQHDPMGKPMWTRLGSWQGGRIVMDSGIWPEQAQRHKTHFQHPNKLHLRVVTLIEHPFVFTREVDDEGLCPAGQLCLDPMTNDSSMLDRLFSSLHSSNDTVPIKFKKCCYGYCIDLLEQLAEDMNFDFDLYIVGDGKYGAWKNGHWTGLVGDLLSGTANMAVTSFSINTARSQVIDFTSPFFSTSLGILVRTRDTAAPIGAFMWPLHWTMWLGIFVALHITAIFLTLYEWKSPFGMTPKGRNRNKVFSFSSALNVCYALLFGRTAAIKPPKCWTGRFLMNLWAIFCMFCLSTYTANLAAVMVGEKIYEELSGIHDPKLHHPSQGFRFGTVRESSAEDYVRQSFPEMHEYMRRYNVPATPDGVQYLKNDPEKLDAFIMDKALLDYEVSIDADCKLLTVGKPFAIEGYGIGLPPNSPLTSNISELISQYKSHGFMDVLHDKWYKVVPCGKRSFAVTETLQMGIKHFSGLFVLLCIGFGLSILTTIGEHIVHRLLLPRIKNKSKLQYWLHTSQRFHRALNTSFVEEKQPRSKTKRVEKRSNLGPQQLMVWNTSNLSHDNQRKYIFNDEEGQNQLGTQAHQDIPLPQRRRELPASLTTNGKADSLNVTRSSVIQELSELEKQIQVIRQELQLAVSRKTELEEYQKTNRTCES", "test": "Glycine-evoked whole-oocyte currents of NR1/NR3A receptors, two-electrode voltage recordings in Xenopus oocytes"}, "[3]": {"system": "cultured cerebrocortical neurons"}, "[4]": {"system": "cerebrocortical neurons", "test": "Single-channel recording from outside-out patches of cerebrocortical neurons"}}, "note": "Entries after “also recorded” stand apart in the source; their conditions may differ. Like-named read-outs stand apart in the source and are kept apart here.", "data": [{"smiles": "N[C@@H](CCC(=O)O)C(=O)O", "note": "[L-glutamate]", "values": [{"measurement": "activation of NR1/NR3B receptors by the substance alone (without co-agonist)", "setting": "[1]", "result": "did not evoke glycine-independent responses; also recorded: did not evoke a glycine-independent response"}, {"measurement": "effect on glycine-evoked currents of NR1/NR3B receptors", "setting": "[1]", "result": "little or no effect; also recorded: did not potentiate glycine-evoked currents"}, {"measurement": "effect on glycine-evoked currents of NR1/NR3A receptors", "setting": "[2]", "result": "did not potentiate glycine-evoked currents"}]}, {"smiles": "C[C@]12N[C@H](Cc3ccccc31)c1ccccc12", "note": "[MK-801]", "values": [{"measurement": "sensitivity of NR1/NR3B receptors to open-channel blocker compared to NR1/NR2A receptors", "setting": "[1]", "result": "drastically less sensitive"}, {"measurement": "sensitivity of NR1/NR3A receptors to open-channel blocker compared to NR1/NR2A receptors", "setting": "[2]", "result": "drastically less sensitive"}]}, {"smiles": "NCC(=O)O", "note": "[glycine]", "values": [{"measurement": "recordings in which glycine triggered neuronal bursting", "setting": "[3]", "result": "22 of 26"}]}, {"smiles": "[Mg+2]", "note": "[Mg^2+]", "values": [{"measurement": "effect on channel activity (NPo) evoked by 2.5 μM glycine", "setting": "[4]", "result": "little effect"}, {"measurement": "effect on glycine-activated single channels of cerebrocortical neurons", "setting": "[4]", "result": "little effect"}, {"measurement": "sensitivity of NR1/NR3B receptors to open-channel blocker compared to NR1/NR2A receptors", "setting": "[1]", "result": "drastically less sensitive"}, {"measurement": "sensitivity of NR1/NR3A receptors to open-channel blocker compared to NR1/NR2A receptors", "setting": "[2]", "result": "drastically less sensitive"}]}, {"smiles": "CN[C@H](CC(=O)O)C(=O)O", "note": "[NMDA, N-methyl-D-aspartate]", "values": [{"measurement": "activation of NR1/NR3B receptors by the substance alone (without co-agonist)", "setting": "[1]", "result": "did not evoke glycine-independent responses; also recorded: did not evoke a glycine-independent response"}, {"measurement": "effect on glycine-evoked currents of NR1/NR3B receptors", "setting": "[1]", "result": "little or no effect; also recorded: did not potentiate glycine-evoked currents"}, {"measurement": "effect on glycine-evoked currents of NR1/NR3A receptors", "setting": "[2]", "result": "did not potentiate glycine-evoked currents"}]}, {"smiles": "NC1=N[C@H](O)[C@H]2[C@H]3O[C@]4(O)O[C@@H]([C@@H](O)[C@@]2(N1)[C@@H]4O)[C@]3(O)CO", "note": "[tetrodotoxin]", "values": [{"measurement": "effect on glycine-evoked bursting response of cultured neurons", "setting": "[3]", "result": "inhibited"}]}, {"smiles": "NC1(C(=O)O)CC1", "note": "[ACPC, 1-aminocyclopropanecarboxylic acid]", "values": [{"measurement": "effect on glycine-evoked currents of NR1/NR3B receptors", "setting": "[1]", "result": "inhibited"}]}, {"smiles": "O=C(O)c1cc(=O)c2c(Cl)cc(Cl)cc2[nH]1", "note": "[5,7-DCKA, 5,7-dichlorokynurenate]", "values": [{"measurement": "effect on glycine-evoked currents of NR1/NR3B receptors", "setting": "[1]", "result": "blocks glycine activated currents; also recorded: virtually abolished"}]}, {"smiles": "N[C@H](CO)C(=O)O", "note": "[D-serine]", "values": [{"measurement": "effect on channel activity (NPo) evoked by 2.5 μM glycine", "setting": "[4]", "result": "decreased"}, {"measurement": "effect on glycine-activated single channels of cerebrocortical neurons", "setting": "[4]", "result": "inhibited"}, {"measurement": "activation of NR1/NR3B receptors by the substance alone (without co-agonist)", "setting": "[1]; Xenopus oocytes", "result": "evokes small NR1/NR3B currents alone; also recorded: activated NR1/NR3B receptors in the absence of glycine; also recorded: evoked small currents alone"}, {"measurement": "effect on glycine-evoked currents of NR1/NR3B receptors", "setting": "[1]; Xenopus oocytes, glycine 10 μM, NMDA or L-glutamate 100 μM unless otherwise indicated", "result": "dose-dependently inhibits currents in the presence of glycine; also recorded: inhibited the glycine response"}, {"measurement": "activation of NR1/NR3A receptors by the substance alone", "setting": "[2]; Xenopus oocytes", "result": "did not independently manifest any agonist activity"}, {"measurement": "effect on glycine-evoked currents of NR1/NR3A receptors", "setting": "[2]; Xenopus oocytes", "result": "even more potent antagonist"}, {"measurement": "effect on glycine-evoked bursting response of cultured neurons", "setting": "[3]", "result": "inhibited"}, {"measurement": "glycine-responsive cells in which glycine-triggered bursting was inhibited", "setting": "[3]", "result": "5 of 22"}]}, {"smiles": "N[C@H](CCCP(=O)(O)O)C(=O)O", "note": "[AP5, D-(−)-2-amino-5-phosphonopentanoate]", "values": [{"measurement": "effect on glycine-evoked currents of NR1/NR3B receptors at 10 μM", "setting": "[1]", "result": "little or no effect"}, {"measurement": "effect on glycine-evoked currents of NR1/NR3A receptors at 10 μM", "setting": "[2]", "result": "little or no effect"}]}]}
